From patent US10201531B2, “Indazolyl-oxo-isothiazole compounds” (MOCHIDA PHARMACEUTICAL CO., LTD., priority 2015, dated 2019)

Test system: Nrf2
Test: Evaluation of Nrf2 activation ability (Nrf2d-LacZ / Keap1 HEK293 reporter, Beta-Glo luminescence)
Format: cell-based, human
Conditions: Pharmacological Test Example 1, rated A/B/C
Experimental: HEK293 cells constantly expressing Nrf2d-LacZ (human Nrf2 degron region fused to LacZ; Hirotsu et al, Genes to Cell, Vol. 16, pp. 406-415 (2011)) and human Keap1 were seeded 7,000 cells/27 μl/well on 384-well plates (Corning 384 Well Flat Clear Bottom White Polystyrene TC-Treated Microplates, Cat. #3707), and cultured overnight at 5% CO2, 37° C. in DMEM medium containing 10% FBS, 100 U/mL penicillin and 100 μg/mL streptomycin. 3 μL/well of a 0.1% DMSO solution of the compound of the invention was added to the cells, which were then cultured for 3 hours at 5% CO2, 37° C. Beta-Glo® reagent (Promega, Beta-Glo Assay System, Cat. #E4740) was added 15 μL/well and incubated for 1 hour at room temperature, and luminescence intensity was measured with a luminometer. Using CDDO-Im as a standard, Nrf2 activation ability was calculated given 100% as the luminescence under stimulus with 100 nM CDDO-Im.

Compound	EC50 [nM]
CC(C)(C)OC(=O)N1CC=C(c2ccc(-c3cnn(-c4cc(O)n[s+]4[O-])c3)cn2)CC1 (single isomer, unassigned) [Example 449]	1000 to 5000
COc1nc(Cl)ccc1-c1cnn(-c2cc(O)n[s+]2[O-])c1 (stereo not drawn) [Example 440]	< 1000
[O-][s+]1nc(O)cc1-n1cc(CCOc2ccccc2)cn1 (stereo not drawn) [Example 329]	1000 to 5000
[O-][s+]1nc(O)cc1-n1cc(-c2ccc(Oc3ccccc3)cc2)cn1 (stereo not drawn) [Example 377]	< 1000
CN(c1ccc(-c2cnn(-c3cc(O)n[s+]3[O-])c2)cn1)C1CCOCC1 (stereo not drawn) [Example 459]	1000 to 5000
COc1ccc(-c2cnn(-c3cc(O)n[s+]3[O-])c2)cn1 (stereo not drawn) [Example 392]	< 1000
[O-][s+]1nc(O)cc1-n1cc(-c2ncccn2)cn1 (stereo not drawn) [Example 423]	1000 to 5000
COc1ncccc1-c1ccc(-c2cnn(-c3cc(O)n[s+]3[O-])c2)cn1 (stereo not drawn) [Example 447]	< 1000
O=C(Cc1ccc(-c2cnn(-c3cc(O)n[s+]3[O-])c2)cc1)N1CCc2ccccc21 (stereo not drawn) [Example 373]	5000 to 10000
[O-][s+]1nc(O)cc1-n1cc(-c2cccc3ccccc23)cn1 (stereo not drawn) [Example 341]	1000 to 5000
COc1cccc(-c2cnn(-c3cc(O)n[s+]3[O-])c2)c1 (stereo not drawn) [Example 388]	< 1000
COc1ccc(-c2cnn(-c3cc(O)n[s+]3[O-])c2)c(OC)n1 (stereo not drawn) [Example 399]	< 1000
CN1CCOc2cc(-c3cnn(-c4cc(O)n[s+]4[O-])c3)cnc21 (single isomer, unassigned) [Example 450]	< 1000
COc1cc(-c2cnn(-c3cc(O)n[s+]3[O-])c2)ccn1 (stereo not drawn) [Example 404]	< 1000

Same assay, conditions: rated A/B/C, Pharmacological Test Example 1

Compound	EC50 [nM]
[O-][s+]1nc(O)cc1-n1ncc2c1CN(Cc1cccc(Oc3ccccc3)c1)C2 (stereo not drawn) [Example 264]	1000 to 5000
[O-][s+]1nc(O)cc1-n1ncc2ccc(C3=CCOCC3)cc21 (stereo not drawn) [Example 103]	1000 to 5000
[O-][s+]1nc(O)cc1-n1ncc2ccccc21 (stereo not drawn) [Example 1, 5-(indazol-1-yl)-1-oxo-1,2-thiazol-3-ol]	1000 to 5000
CC(C)(C)OC(=O)N1CCc2c(c(I)nn2-c2cc(O)n[s+]2[O-])C1 (stereo not drawn) [Example 251]	5000 to 10000
CN1CCOc2nc(-c3ccc4c(cnn4-c4cc(O)n[s+]4[O-])c3)ncc21 (stereo not drawn) [Example 215]	< 1000
COCCN1CCOc2cc(-c3ccc4c(cnn4-c4cc(O)n[s+]4[O-])c3)cnc21 (stereo not drawn) [Example 172]	< 1000
[2H]c1cccc(-c2ccc3c(cnn3-c3cc(O)n[s+]3[O-])c2)n1 (stereo not drawn) [Example 89]	< 1000
[O-][s+]1nc(O)cc1-n1ncc2cc(Br)ccc21 (stereo not drawn) [Example 2, 5-(5-bromoindazol-1-yl)-1-oxo-1,2-thiazol-3-ol]	< 1000
COc1ccc(-c2ccc3c(cnn3-c3cc(O)n[s+]3[O-])c2)cn1 (stereo not drawn) [Example 86]	< 1000
COc1cc(-c2ccnc(N3CCCCC3)c2)c2cnn(-c3cc(O)n[s+]3[O-])c2c1 (stereo not drawn) [Example 176]	1000 to 5000
CN1C(=O)CCc2cc(-c3ccc4c(cnn4-c4cc(O)n[s+]4[O-])c3)cnc21 (stereo not drawn) [Example 164]	5000 to 10000
[O-][s+]1nc(O)cc1-n1cc2c(n1)CN(Cc1ccccc1)C2 (single isomer, unassigned) [Example 255]	1000 to 5000
Cc1cncc(-c2ccc3cnn(-c4cc(O)n[s+]4[O-])c3c2)c1 (stereo not drawn) [Example 113]	5000 to 10000
COc1cc(-c2ccc(N3CCCCC3)nc2)c2cnn(-c3cc(O)n[s+]3[O-])c2c1 (stereo not drawn) [Example 180]	< 1000
COc1cc(-c2cnc3c(c2)OCCN3C)c2cnn(-c3cc(O)n[s+]3[O-])c2c1 (stereo not drawn) [Example 174]	1000 to 5000
Cc1cccc2cnn(-c3cc(O)n[s+]3[O-])c12 (stereo not drawn) [Example 34]	1000 to 5000
[O-][s+]1nc(O)cc1-n1ncc2cc(-c3ccccc3F)ccc21 (stereo not drawn) [Example 83]	< 1000
CN1CCOc2cc(-c3ccc4c(cnn4-c4cc(O)n[s+]4[O-])c3)cnc21 (stereo not drawn) [Example 5, 5-[5-(4-methyl-2,3-dihydropyrido[3,2-b][1, 4]oxazin-7-yl)indazol-1-yl]-1-oxo-1,2-thiazol-3-ol]	< 1000
O=c1[nH]ccc2cc(-c3ccc4c(cnn4-c4cc(O)n[s+]4[O-])c3)ccc12 (stereo not drawn) [Example 64]	1000 to 5000
CN1CCN(c2cc(-c3ccc4c(cnn4-c4cc(O)n[s+]4[O-])c3)ccn2)CC1 (stereo not drawn) [Example 53]	< 1000
[O-][s+]1nc(O)cc1-n1ncc2cc(-c3cncnc3)ccc21 (stereo not drawn) [Example 41]	1000 to 5000
[O-][s+]1nc(O)cc1-n1ncc2cc(-c3ccccc3)ncc21 (stereo not drawn) [Example 233]	< 1000
[O-][s+]1nc(O)cc1-n1ncc2ccccc21 (stereo not drawn) [Example 16]	1000 to 5000

Compound	EC50 [nM]
CC(C)(C)OC(=O)N1CCc2cn(-c3cc(O)n[s+]3[O-])nc2CC1 (stereo not drawn) [Example 244]	1000 to 5000
O=C(c1c(Cl)cccc1Cl)c1nn(-c2cc(O)n[s+]2[O-])c2ccccc12 (stereo not drawn) [Example 22]	1000 to 5000
Cn1ccc(-c2ccc3c(cnn3-c3cc(O)n[s+]3[O-])c2)n1 (stereo not drawn) [Example 226]	< 1000
CC(C)(C)OC(=O)N1CC=C(c2ccc3c(cnn3-c3cc(O)n[s+]3[O-])c2)CC1 (stereo not drawn) [Example 44]	< 1000
[O-][s+]1nc(O)cc1-n1ccc(-c2cccc(Br)c2)n1 (stereo not drawn) [Example 286]	< 1000
CN1CCOc2nc(-c3ccc4c(cnn4-c4cc(O)n[s+]4[O-])c3)cnc21 (stereo not drawn) [Example 210]	< 1000
Cc1nn(-c2cc(O)n[s+]2[O-])c(C)c1C1=CCN(C(=O)OC(C)(C)C)CC1 (stereo not drawn) [Example 313]	5000 to 10000
CN1CCCOc2cc(-c3ccc4c(cnn4-c4cc(O)n[s+]4[O-])c3)cnc21 (stereo not drawn) [Example 209]	< 1000
[O-][s+]1nc(O)cc1-n1ncc2cc(-c3ccc(F)cn3)ccc21 (stereo not drawn) [Example 119]	1000 to 5000
Cc1cncc(-c2ccc3c(cnn3-c3cc(O)n[s+]3[O-])c2)c1 (stereo not drawn) [Example 56]	< 1000
Cc1cnc(-c2ccc3c(cnn3-c3cc(O)n[s+]3[O-])c2)cn1 (stereo not drawn) [Example 123]	< 1000
[O-][s+]1nc(O)cc1-n1ncc2cc(-c3cccc(C(F)(F)F)n3)ccc21 (stereo not drawn) [Example 130]	< 1000
[O-][s+]1nc(O)cc1-n1ncc2c(C3=CCOCC3)cccc21 (stereo not drawn) [Example 95]	5000 to 10000
[O-][s+]1nc(O)cc1-n1ncc2cc(-c3ccnc(N4CCOCC4)c3)ccc21 (stereo not drawn) [Example 59]	< 1000
COc1cc(-c2cccnc2)cc2c1cnn2-c1cc(O)n[s+]1[O-] (stereo not drawn) [Example 199]	1000 to 5000
CC1(C)COc2cc(-c3ccc4c(cnn4-c4cc(O)n[s+]4[O-])c3)cnc2N1 (stereo not drawn) [Example 217]	< 1000
CN(C(=O)N1CCC(c2ccc3c(cnn3-c3cc(O)n[s+]3[O-])c2)CC1)c1ccccc1 (stereo not drawn) [Example 170]	1000 to 5000
COc1cc(-c2ccnc(N3CCCC3)c2)c2cnn(-c3cc(O)n[s+]3[O-])c2c1 (stereo not drawn) [Example 181]	1000 to 5000
COc1cc2c(cnn2-c2cc(O)n[s+]2[O-])cc1Br (stereo not drawn) [Example 69]	1000 to 5000
CC1(C)CNc2ncc(-c3ccc4c(cnn4-c4cc(O)n[s+]4[O-])c3)cc2O1 (stereo not drawn) [Example 189]	< 1000
Cc1nn(-c2cc(O)n[s+]2[O-])c(C)c1C1=CCC(F)(F)CC1 (stereo not drawn) [Example 312]	5000 to 10000
COc1c(-c2cnc3c(c2)OCCN3C)ccc2c1cnn2-c1cc(O)n[s+]1[O-] (stereo not drawn) [Example 211]	< 1000
[O-][s+]1nc(O)cc1-n1ncc2ccc(-c3ccccc3)cc21 (stereo not drawn) [Example 78]	1000 to 5000
